Holding throughout (format): cell-based
For one assay, the system named is Target C CJ mRNA. Briefly: Gene panel canonical junction qPCR assay, Target C. The settings on record: decrease in CJ mRNA levels, gene panel; read-out: Target C IC50. On the procedure:
(§1) The expression of a target mRNA was measured by detecting the formation of an exon-exon junction in the canonical transcript (CJ). A compound mediated exon-inclusion event was detected by observing an increase in formation of a new junction with an alternative exon (AJ). Real-time qPCR assays were used to detect these splicing switches and interrogate the potency of various compounds towards different target genes. A high-throughput real time quantitative PCR (RT-qPCR) assay was developed to measure these two isoforms of the mRNA (CJ and AJ) for an exemplary gene, HTT, together with a control housekeeping gene, GAPDH or GUSB or PPIA, used for normalization. Briefly, the A673 or K562 cell line was treated with various compounds described herein (e.g., compounds of Formula (I)). After treatment, the levels of the HTT mRNA targets were determined from each sample of cell lysate by cDNA synthesis followed by qPCR. The A673 cell line was cultured in DMEM with 10% FBS. Cells were diluted with full growth media and plated in a 96-well plate (15,000 cells in 100 ul media per well). The plate was incubated at 37° C. with 5% CO2 for 24 hours to allow cells to adhere. An 11-point 3-fold serial dilution of the compounds was made in DMSO then diluted in media in an intermediate plate. Compounds were transferred from the intermediate plate to the cell plate with the top dose at a final concentration of 10 uM in the well. Final DMSO concentration was kept at or below 0.25%. The cell plate was returned to the incubator at 37° C. with 5% CO2 for an additional 24 hours. The K562 cell line was cultured in IMDM with 10% FBS. For K562, cells were diluted with full growth media and plated in either a 96-well plate (50,000 cells in 50 uL media per well) or a 384-well plate (8,000-40,000 cells in 45 uL media per well). An 11-point 3-fold serial dilution of the compounds were made in DMSO then diluted in media in an intermediate plate. Compound was transferred from the intermediate plate to the cell plate with the top dose at a final concentration of 10 uM in the well. Final DMSO concentration was kept at or below 0.25%. Final volume was 100 uL for 96-well plate and 50 uL for 384-well plate. The cell plate was then placed in an incubator at 37° C. with 5% CO2 for 24 hours. The cells were then gently washed with 50 uL-100 uL cold PBS before proceeding to addition of lysis buffer. 30 uL-50 uL of room temperature lysis buffer with DNAse I (and optionally RNAsin) was added to each well. Cells were shaken/mixed thoroughly at room temperature for 5-10 minutes for lysis to take place and then 3 uL-5 uL of room temperature stop solution was added and wells were shaken/mixed again. After 2-5 minutes, the cell lysate plate was transferred to ice for RT-qPCR reaction setup. The lysates could also be frozen at −80° C. for later use. In some cases, a direct lysis buffer was used. An appropriate volume of 3× lysis buffer (10 mM Tris, 150 mM NaCl, 1.5%-2.5% Igepal and 0.1-1 U/uL RNAsin, pH 7.4) was directly added to either K562 or A673 cells in media and mixed by pipetting 3 times. The plates were then incubated at room temperature with shaking/rocking for 20-50 minutes to allow for lysis to take place. After this time, the cell lysate plate was transferred to ice to set up for the RT-qPCR reactions. The lysates could also be frozen at −80° C. for later use. To set up 10 uL RT-qPCR reactions, cell lysates were transferred to 384-well qPCR plates containing the master mix according to the table below. The plates were sealed, gently vortexed, and spun down before the run. The volumes were adjusted accordingly in some instances where the reaction was carried in 20 uL. The table below summarizes the components of the RT-qPCR reactions: The RT-qPCR reaction was performed using a QuantStudio (ThermoFisher) under the following fast cycling conditions. All samples and standards were analyzed at least in duplicate.

The subject of another assay is SMN2 CJ mRNA. Briefly: Gene panel canonical junction qPCR assay, SMN2. The settings on record: decrease in CJ mRNA levels, gene panel; read-out: SMN2 IC50. On the procedure: as §1
The next assay deals with HTT CJ mRNA. Briefly: Gene panel canonical junction qPCR assay, HTT. The note with it: decrease in CJ mRNA levels, gene panel; read-out: HTT IC50. The procedure:
as §1

Another assay concerns HTT mRNA. Briefly: Splicing assay (RT-qPCR) monitoring HTT canonical junction (CJ) and alternative junction (AJ) mRNA isoforms. The note with it: A673 or K562 cells, 24 h treatment, top dose 10 uM. On the procedure:
Compounds described herein were used to modulate RNA transcript abundance in cells. The expression of a target mRNA was measured by detecting the formation of an exon-exon junction in the canonical transcript (CJ). A compound mediated exon-inclusion event was detected by observing an increase in formation of a new junction with an alternative exon (AJ). Real-time qPCR assays were used to detect these splicing switches and interrogate the potency of various compounds towards different target genes. A high-throughput real time quantitative PCR (RT-qPCR) assay was developed to measure these two isoforms of the mRNA (CJ and AJ) for an exemplary gene, HTT, together with a control housekeeping gene, GAPDH or GUSB or PPIA, used for normalization. Briefly, the A673 or K562 cell line was treated with various compounds described herein (e.g., compounds of Formula (I)). After treatment, the levels of the HTT mRNA targets were determined from each sample of cell lysate by cDNA synthesis followed by qPCR.
• Cells-to-CT 1-step kit: ThermoFisher A25602, Cells-to-CT lysis reagent: ThermoFisher 4391851C, TaqMan™ Fast Virus 1-Step Master Mix: ThermoFisher 4444436 • GAPDH: VIC-PL, ThermoFisher 4326317E (Assay: Hs99999905_m1)—used for K562/suspension cell lines • GUSB: VIC-PL, ThermoFisher 4326320E (Assay: Hs99999908_m1)—used for K562/suspension cell lines • PPIA: VIC-PL, ThermoFisher 4326316E (Assay: Hs99999904_m1) — used for A673/adherent cell lines
The A673 cell line was cultured in DMEM with 10% FBS. Cells were diluted with full growth media and plated in a 96-well plate (15,000 cells in 100 ul media per well). The plate was incubated at 37° C. with 5% CO2 for 24 hours to allow cells to adhere. An 11-point 3-fold serial dilution of the compounds was made in DMSO then diluted in media in an intermediate plate. Compounds were transferred from the intermediate plate to the cell plate with the top dose at a final concentration of 10 uM in the well. Final DMSO concentration was kept at or below 0.25%. The cell plate was returned to the incubator at 37° C. with 5% CO2 for an additional 24 hours.
The K562 cell line was cultured in IMDM with 10% FBS. For K562, cells were diluted with full growth media and plated in either a 96-well plate (50,000 cells in 50 uL media per well) or a 384-well plate (8,000-40,000 cells in 45 uL media per well). An 11-point 3-fold serial dilution of the compounds were made in DMSO then diluted in media in an intermediate plate. Compound was transferred from the intermediate plate to the cell plate with the top dose at a final concentration of 10 uM in the well. Final DMSO concentration was kept at or below 0.25%. Final volume was 100 uL for 96-well plate and 50 uL for 384-well plate. The cell plate was then placed in an incubator at 37° C. with 5% CO2 for 24 hours.
The cells were then gently washed with 50 uL-100 uL cold PBS before proceeding to addition of lysis buffer. 30 uL-50 uL of room temperature lysis buffer with DNAse I (and optionally RNAsin) was added to each well. Cells were shaken/mixed thoroughly at room temperature for 5-10 minutes for lysis to take place and then 3 uL-5 uL of room temperature stop solution was added and wells were shaken/mixed again. After 2-5 minutes, the cell lysate plate was transferred to ice for RT-qPCR reaction setup. The lysates could also be frozen at −80° C. for later use.
In some cases, a direct lysis buffer was used. An appropriate volume of 3× lysis buffer (10 mM Tris, 150 mM NaCl, 1.5%-2.5% Igepal and 0.1-1 U/uL RNAsin, pH 7.4) was directly added to either K562 or A673 cells in media and mixed by pipetting 3 times. The plates were then incubated at room temperature with shaking/rocking for 20-50 minutes to allow for lysis to take place. After this time, the cell lysate plate was transferred to ice to set up for the RT-qPCR reactions. The lysates could also be frozen at −80° C. for later use. […]

The mark [1] stands for this setting: decrease in CJ mRNA (50% response), read-out: HTT CJ AC50.
[2] abbreviates: increase in AJ mRNA (50% response), read-out: HTT AJ AC50.

Like-named read-outs stand apart in the source and are kept apart here. Some results are limits rather than exact numbers.

For the compound `Cc1cn2cc(-c3ccc4c(=O)n(C5CCNCC5)cnc4c3)ncc2n1` [Compound 297], the IC50 with Target C CJ mRNA was 1000 to 10000 nM; with SMN2 CJ mRNA it was under 100 nM; in the assay on HTT CJ mRNA it was 1000 to 10000 nM. Further, the AC50 with HTT mRNA (setting [1]) and in the assay on HTT mRNA (setting [2]) was 1000 to 10000 nM in each case.
For the compound `CN1CCN(c2ccc3c(=O)n(-c4ccc5cn(C)nc5c4)cnc3c2)CC1` [Compound 178, 3-(2-methyl-2H-indazol-6-yl)-7-(4-methylpiperazin-1-yl)quinazolin-4(3H)-one], the IC50 with Target C CJ mRNA, in the assay on SMN2 CJ mRNA and in the assay on HTT CJ mRNA was over 10000 nM each time. Also, the AC50 in the assay with HTT mRNA (setting [1]) and with HTT mRNA (setting [2]) was over 10000 nM each time.
For `Cc1cn2nc(-c3ccc4c(c3)CCN(C3CCN(C)C3)C4=O)cc(C)c2n1` (stereo not shown) [Compound 282, 6-{2,8-dimethylimidazo[1,2-b]pyridazin-6-yl}-2-(1-methylpyrrolidin-3-yl)-3,4-dihydroisoquinolin-1-one], the figures for the IC50 in the assay on Target C CJ mRNA, in the assay with SMN2 CJ mRNA and with HTT CJ mRNA were over 10000 nM, 1000 to 10000 nM and over 10000 nM, respectively. In addition, the AC50 in the assay with HTT mRNA (setting [1]) and with HTT mRNA (setting [2]) was over 10000 nM throughout.
Turning to `Cc1cn2cc(-c3ccc4c(c3)CCN(C3CCNCC3)C4=O)ncc2n1` [Compound 224], the IC50 is over 10000 nM in the assay on Target C CJ mRNA, 100 to 1000 nM in the assay on SMN2 CJ mRNA and over 10000 nM in the assay on HTT CJ mRNA. The AC50 with HTT mRNA (setting [1]) and in the assay on HTT mRNA (setting [2]) was over 10000 nM in each case.
Take `Cc1cn2cc(-c3ccc4c(=O)n(C5CCNCC5)ncc4c3)c(C)cc2n1` [Compound 254]: the IC50 in the assay with Target C CJ mRNA, with SMN2 CJ mRNA and with HTT CJ mRNA was 1000 to 10000 nM in each case. The AC50 in the assay with HTT mRNA (setting [1]) and in the assay on HTT mRNA (setting [2]) was 1000 to 10000 nM each time.
As for `Cc1cn2cc(-c3ccc4c(c3)CCN(C3CCNCC3)C4=O)c(C)cc2n1` [Compound 218], the IC50 in the assay on Target C CJ mRNA, with SMN2 CJ mRNA and in the assay with HTT CJ mRNA was 1000 to 10000 nM each time. For the same compound, the AC50 in the assay with HTT mRNA (setting [1]) and in the assay with HTT mRNA (setting [2]) was 1000 to 10000 nM each time.
In the case of `Cc1cn2cc(-c3ccc4c(c3)CCN(C3CCNCC3)C4=O)cc(C(F)(F)F)c2n1` [Compound 252, 6-[2-methyl-8-(trifluoromethyl)imidazo[1,2-a]pyridin-6-yl]-2-(piperidin-4-yl)-3,4-dihydroisoquinolin-1-one], the results for the IC50 in the assay on Target C CJ mRNA, with SMN2 CJ mRNA and in the assay with HTT CJ mRNA were over 10000 nM, 100 to 1000 nM and over 10000 nM, respectively. The AC50 in the assay with HTT mRNA (setting [1]) and in the assay on HTT mRNA (setting [2]) was over 10000 nM throughout.
As for `Cc1cn2cc(-c3ccc4c(=O)n(C5CCNC(C)(C)C5)cnc4c3)cc(F)c2n1` (stereo not shown) [Compound 237, 3-(2,2-dimethylpiperidin-4-yl)-7-(8-fluoro-2-methylimidazo[1,2-a]pyridin-6-yl)quinazolin-4(3H)-one], the figures for the IC50 with Target C CJ mRNA, in the assay with SMN2 CJ mRNA and in the assay with HTT CJ mRNA were 1000 to 10000 nM, under 100 nM and 100 to 1000 nM, respectively. In addition, the AC50 in the assay with HTT mRNA (setting [1]) and in the assay on HTT mRNA (setting [2]) was 100 to 1000 nM throughout.
In the case of `Cc1nc2c(F)cc(-c3ccc4c(c3)CCN(C3CCNCC3)C4=O)cc2o1` [Compound 215], the figures for the IC50 in the assay with Target C CJ mRNA, in the assay with SMN2 CJ mRNA and with HTT CJ mRNA were 1000 to 10000 nM, under 100 nM and 1000 to 10000 nM, respectively. The AC50 in the assay with HTT mRNA (setting [1]) and with HTT mRNA (setting [2]) was 1000 to 10000 nM throughout.
As for `Cc1cn2nc(-c3ccc4c(=O)n(C5CCOCC5)ncc4c3)cc(C)c2n1` [Compound 275], the IC50 in the assay on Target C CJ mRNA and in the assay with HTT CJ mRNA was over 10000 nM each time.
For `Cc1cn2nc(-c3ccc4c(=O)n([C@H]5CCN[C@H](C)C5)ncc4c3)cc(C)c2n1` [Compound 273], the IC50 is 100 to 1000 nM with Target C CJ mRNA and under 100 nM in the assay on HTT CJ mRNA. Moreover, the AC50 in the assay on HTT mRNA (setting [1]) was under 100 nM; in the assay with HTT mRNA (setting [2]) it was 100 to 1000 nM.
On to `CC[C@@H]1C[C@@H](n2ncc3cc(-c4cc(C)c5nc(C)cn5n4)ccc3c2=O)CCN1` [Compound 305, 6-{2,8-dimethylimidazo[1,2-b]pyridazin-6-yl}-2-[(2R,4S)-2-ethylpiperidin-4-yl]phthalazin-1-one], for which the IC50 in the assay with Target C CJ mRNA and with HTT CJ mRNA was 100 to 1000 nM throughout. Besides, the AC50 lay within 100 to 1000 nM in the assay with HTT mRNA (setting [1]) and 1000 to 10000 nM in the assay on HTT mRNA (setting [2]).
